Tested on: AAC(6’)-Iaq
Format: biochemical, Brucella intermedia

SMILES | Km
NCC[C@H](O)C(=O)N[C@@H]1C[C@H](N)[C@@H](O[C@H]2O[C@H](CN)[C@@H](O)[C@H](O)[C@H]2O)[C@H](O)[C@H]1O[C@H]1O[C@H](CO)[C@@H](O)[C@H](N)[C@H]1O [amikacin] | 14.1 ± 0.76 µM
NC[C@H]1O[C@H](O[C@H]2[C@H](O)[C@@H](O[C@H]3O[C@H](CO)[C@@H](O)[C@H](N)[C@H]3O)[C@H](N)C[C@@H]2N)[C@H](O)[C@@H](O)[C@@H]1O [kanamycin] | 13.3 ± 9.07 µM
CCN[C@@H]1C[C@H](N)[C@@H](O[C@H]2OC(CN)=CC[C@H]2N)[C@H](O)[C@H]1O[C@H]1OC[C@](C)(O)[C@H](NC)[C@H]1O [netilmicin] | 3.83 ± 0.34 µM
NC[C@H]1O[C@H](O[C@H]2[C@H](O[C@@H]3O[C@H](CO)[C@@H](O)[C@H]3O)[C@@H](O)[C@H](N)C[C@@H]2N)[C@H](N)[C@@H](O)[C@@H]1O [ribostamycin] | 10.1 ± 2.45 µM
CN[C@@H]1[C@@H](O)[C@@H](O[C@@H]2[C@@H](O)[C@H](O[C@H]3OC(CN)=CC[C@H]3N)[C@@H](N)C[C@H]2N)OC[C@]1(C)O [sisomicin] | 4.33 ± 1.32 µM

From PMC11932996, “aac(6’)-Iaq, a novel aminoglycoside acetyltransferase gene identified from an animal isolate Brucella intermedia DW0551” (Frontiers in Cellular and Infection Microbiology, 2025)
